Results published in US20250049748A1, “ANALOGS OF 4-BROMO-2,5-DIMETHOXYPHENETHYLAMINE” (Terran Biosciences Inc., priority 2021, published 2025).
Where “and” joins values, the source holds several entries; their conditions need not be identical. Equal entries are not always repeated.

Experiment: Pharmacokinetic study in rats: plasma 2C-B after IV/PO 2C-B or PO 2C-B prodrugs
Conditions: for Tlast / AUC0-inf / AUC0-last / Cmax / T1/2 / AUC(0-t) / half-life / Tmax: analyte 2C-B in plasma; for AUC(0-t): AUC0-last
[1] = 2C-B dosed IV 1 mg/kg, male SD rats, individual animals, 1 mg/kg
[2] = 2C-B dosed oral 5 mg/kg, male SD rats, individual animals, 5 mg/kg
[3] = 2C-B dosed oral 10 mg/kg, male SD rats, individual animals, 10 mg/kg
[4] = male, Sprague-Dawley, rat, plasma, po, 5 mg/kg, 2C-B dosed oral 5 mg/kg, male SD rats, mean
[5] = oral dosing of 2C-B prodrug, rat, time 0.500 h, individual animal
[6] = oral dosing of 2C-B prodrug, rat, time 0.500 h, mean
[7] = oral dosing of 2C-B prodrug, rat, time 1.00 h, individual animal
[8] = oral dosing of 2C-B prodrug, rat, time 1.00 h, mean
[9] = oral dosing of 2C-B prodrug, rat, time 2.00 h, individual animal
[10] = oral dosing of 2C-B prodrug, rat, time 2.00 h, mean
[11] = oral dosing of 2C-B prodrug, rat, time 4.00 h, individual animal
[12] = oral dosing of 2C-B prodrug, rat, time 4.00 h, mean
[13] = oral dosing of 2C-B prodrug, rat, time 7.00 h, individual animal
[14] = oral dosing of 2C-B prodrug, rat, time 7.00 h, mean
[15] = oral dosing of 2C-B prodrug, rat, time 24.0 h, individual animal
[16] = oral dosing of 2C-B prodrug, rat, time 24.0 h, mean

For `COc1cc(CCN)c(OC)cc1Br` [Example 2C-B, 4-bromo-2,5-dimethoxyphenethylamine], the Tlast (2C-B dosed IV 1 mg/kg, male SD rats, Mean* row (median calculated for Tlast)) was 2 h, the Tlast (2C-B dosed IV 1 mg/kg, male SD rats, individual animals) was 2 h and the AUC0-inf [1] was 72.0 ng·h/mL and 57.8 ng·h/mL. The AUC0-last [1] was 71.0 ng·h/mL and 56.8 ng·h/mL, the Cmax [1] was 85.0 ng/mL and 68.8 ng/mL and the T1/2 [1] was 20.3 min and 22.2 min. For the same compound, the AUC0-inf [2] was 92.0 ng·h/mL and 115 ng·h/mL and 193 ng·h/mL, the AUC0-last [2] was 69.0 ng·h/mL and 103 ng·h/mL and 159 ng·h/mL and the Cmax [2] was 29.5 ng/mL and 53.5 ng/mL. For the same compound, the T1/2 [2] was 251 min and 454 min and 732 min, the Tlast [2] was 7.00 h and 24.0 h (2×) and the Tlast (2C-B dosed oral 5 mg/kg, male SD rats, mean) was 18.3 h. The Tlast (2C-B dosed oral 10 mg/kg, male SD rats, Mean* row (median calculated for Tlast)) was 7.0 h, the AUC0-inf [3] was 66.8 ng·h/mL and 26.1 ng·h/mL and the AUC0-last [3] was 40.9 ng·h/mL and 64.3 ng·h/mL and 23.8 ng·h/mL. For the same compound, the Cmax [3] was 29.4 ng/mL and 37.9 ng/mL and 11.3 ng/mL, the T1/2 [3] was 134 min and the Tlast [3] was 2 h and 7 h (2×). It also gave an AUC0-inf (male, Sprague-Dawley, rat, plasma, iv, 1 mg/kg, AUC0-inf, 2C-B dosed IV 1 mg/kg, male SD rats, individual animals) of 68.6 ng·h/mL, an AUC0-inf (male, Sprague-Dawley, rat, plasma, iv, 1 mg/kg, AUC0-inf, 2C-B dosed IV 1 mg/kg, male SD rats, mean of 3 animals) of 66.1 ng·h/mL and an AUC(0-t) (male, Sprague-Dawley, rat, plasma, iv, 1 mg/kg, 2C-B dosed IV 1 mg/kg, male SD rats, individual animals) of 65.6 ng·h/mL. It also gave an AUC(0-t) (male, Sprague-Dawley, rat, plasma, iv, 1 mg/kg, 2C-B dosed IV 1 mg/kg, male SD rats, mean of 3 animals) of 64.5 ng·h/mL, a Cmax (male, Sprague-Dawley, rat, plasma, iv, 1 mg/kg, Cmax, 2C-B dosed IV 1 mg/kg, male SD rats, individual animals) of 72 ng/mL and a Cmax (male, Sprague-Dawley, rat, plasma, iv, 1 mg/kg, Cmax, 2C-B dosed IV 1 mg/kg, male SD rats, mean of 3 animals) of 75.3 ng/mL. It also gave a half-life (male, Sprague-Dawley, rat, plasma, iv, 1 mg/kg, T1/2, 2C-B dosed IV 1 mg/kg, male SD rats, individual animals) of 27.3 min, a half-life (male, Sprague-Dawley, rat, plasma, iv, 1 mg/kg, T1/2, 2C-B dosed IV 1 mg/kg, male SD rats, mean of 3 animals) of 23.3 min and an AUC0-inf (male, Sprague-Dawley, rat, plasma, po, 5 mg/kg, AUC0-inf, 2C-B dosed oral 5 mg/kg, male SD rats, mean) of 133 ng·h/mL. The AUC(0-t) [4] was 110 ng·h/mL, the Cmax (male, Sprague-Dawley, rat, plasma, po, 5 mg/kg, Cmax, 2C-B dosed oral 5 mg/kg, male SD rats, individual animals) was 30.1 ng/mL and the Cmax (male, Sprague-Dawley, rat, plasma, po, 5 mg/kg, Cmax, 2C-B dosed oral 5 mg/kg, male SD rats, mean) was 37.7 ng/mL. The half-life (male, Sprague-Dawley, rat, plasma, po, 5 mg/kg, T1/2, 2C-B dosed oral 5 mg/kg, male SD rats, mean) was 479 min, the Tmax (male, Sprague-Dawley, rat, plasma, po, 5 mg/kg, 2C-B dosed oral 5 mg/kg, male SD rats, individual animals) was 30 min and the Tmax [4] was 30 min. The AUC0-inf (male, Sprague-Dawley, rat, plasma, po, 10 mg/kg, AUC0-inf, 2C-B dosed oral 10 mg/kg, male SD rats, mean) was 46.5 ng·h/mL, the AUC(0-t) (male, Sprague-Dawley, rat, plasma, po, 10 mg/kg, 2C-B dosed oral 10 mg/kg, male SD rats, mean) was 43 ng·h/mL and the Cmax (male, Sprague-Dawley, rat, plasma, po, 10 mg/kg, Cmax, 2C-B dosed oral 10 mg/kg, male SD rats, mean) was 26.2 ng/mL. It also gave a half-life (male, Sprague-Dawley, rat, plasma, po, 10 mg/kg, T1/2, 2C-B dosed oral 10 mg/kg, male SD rats, individual animals) of 99 min, a half-life (male, Sprague-Dawley, rat, plasma, po, 10 mg/kg, T1/2, 2C-B dosed oral 10 mg/kg, male SD rats, mean) of 116 min and a Tmax (male, Sprague-Dawley, rat, plasma, po, 10 mg/kg, 2C-B dosed oral 10 mg/kg, male SD rats, Mean* row (median calculated for Tmax)) of 30 min. It also gave a Tmax (male, Sprague-Dawley, rat, plasma, po, 10 mg/kg, 2C-B dosed oral 10 mg/kg, male SD rats, individual animals) of 60 min.
With `COc1cc(CCNC(C)=O)c(OC)cc1Br` [Example 4, N-(4-bromo-2,5-dimethoxyphenethyl)acetamide] the “Plasma Concentrations of metabolite 2C-B Following Oral Dosing” value (from here on “Plasma Concentrations”) (prodrug oral 10 mg/kg, male SD rats, time 0.500 h, individual animals) was “BLQ (BLQ: Below Lower Limit of Quanification (0.5 ng/mL))”, the “Plasma Concentrations” value (prodrug oral 10 mg/kg, male SD rats, time 0.500 h, mean) was “BLQ (BLQ: Below Lower Limit of Quanification (0.5 ng/mL))” and the “Plasma Concentrations” value (prodrug oral 10 mg/kg, male SD rats, time 1.00 h, individual animals) was “BLQ (BLQ: Below Lower Limit of Quanification (0.5 ng/mL))”. For the same compound, the “Plasma Concentrations” value (prodrug oral 10 mg/kg, male SD rats, time 1.00 h, mean) was “BLQ (BLQ: Below Lower Limit of Quanification (0.5 ng/mL))”, the “Plasma Concentrations” value (prodrug oral 10 mg/kg, male SD rats, time 2.00 h, individual animals) was “BLQ (BLQ: Below Lower Limit of Quanification (0.5 ng/mL))” and the “Plasma Concentrations” value (prodrug oral 10 mg/kg, male SD rats, time 2.00 h, mean) was “BLQ (BLQ: Below Lower Limit of Quanification (0.5 ng/mL))”. For the same compound, the “Plasma Concentrations” value (prodrug oral 10 mg/kg, male SD rats, time 4.00 h, individual animals) was “BLQ (BLQ: Below Lower Limit of Quanification (0.5 ng/mL))”, the “Plasma Concentrations” value (prodrug oral 10 mg/kg, male SD rats, time 4.00 h, mean) was “BLQ (BLQ: Below Lower Limit of Quanification (0.5 ng/mL))” and the “Plasma Concentrations” value (prodrug oral 10 mg/kg, male SD rats, time 7.00 h, individual animals) was “BLQ (BLQ: Below Lower Limit of Quanification (0.5 ng/mL))”. The “Plasma Concentrations” value (prodrug oral 10 mg/kg, male SD rats, time 7.00 h, mean) was “BLQ (BLQ: Below Lower Limit of Quanification (0.5 ng/mL))”, the “Plasma Concentrations” value (prodrug oral 10 mg/kg, male SD rats, time 24.0 h, individual animals) was “BLQ (BLQ: Below Lower Limit of Quanification (0.5 ng/mL))” and the “Plasma Concentrations” value (prodrug oral 10 mg/kg, male SD rats, time 24.0 h, mean) was “BLQ (BLQ: Below Lower Limit of Quanification (0.5 ng/mL))”.
In the case of `COc1cc(CCNC(=O)C(F)(F)F)c(OC)cc1Br` [Example 5, N-(4-bromo-2,5-dimethoxyphenethyl)-2,2,2-trifluoroacetamide], the “Plasma Concentrations” value [5] was “BLQ (BLQ: Below Lower Limit of Quanification (0.5 ng/mL))”, the “Plasma Concentrations” value [6] was “BLQ (BLQ: Below Lower Limit of Quanification (0.5 ng/mL))” and the “Plasma Concentrations” value [7] was “BLQ (BLQ: Below Lower Limit of Quanification (0.5 ng/mL))”. The “Plasma Concentrations” value [8] was “BLQ (BLQ: Below Lower Limit of Quanification (0.5 ng/mL))”, the “Plasma Concentrations” value [9] was “BLQ (BLQ: Below Lower Limit of Quanification (0.5 ng/mL))” and the “Plasma Concentrations” value [10] was “BLQ (BLQ: Below Lower Limit of Quanification (0.5 ng/mL))”. For the same compound, the “Plasma Concentrations” value [11] was “BLQ (BLQ: Below Lower Limit of Quanification (0.5 ng/mL))”, the “Plasma Concentrations” value [12] was “BLQ (BLQ: Below Lower Limit of Quanification (0.5 ng/mL))” and the “Plasma Concentrations” value [13] was “BLQ (BLQ: Below Lower Limit of Quanification (0.5 ng/mL))”. For the same compound, the “Plasma Concentrations” value [14] was “BLQ (BLQ: Below Lower Limit of Quanification (0.5 ng/mL))”, the “Plasma Concentrations” value [15] was “BLQ (BLQ: Below Lower Limit of Quanification (0.5 ng/mL))” and the “Plasma Concentrations” value [16] was “BLQ (BLQ: Below Lower Limit of Quanification (0.5 ng/mL))”.
For `COc1cc(CCNC(=O)CN(C)C(=O)[C@H](Cc2ccccc2)NC(=O)OC(C)(C)C)c(OC)cc1Br` [Example 10, tert-butyl (S)-(1-((2-((4-bromo-2,5-dimethoxyphenethyl)amino)-2-oxoethyl)(methyl)amino)-1-oxo-3-phenylpropan-2-yl)carbamate], the “Plasma Concentrations” value [5] was “BLQ (BLQ: Below Lower Limit of Quanification (0.5 ng/mL))”, the “Plasma Concentrations” value [6] was “BLQ (BLQ: Below Lower Limit of Quanification (0.5 ng/mL))” and the “Plasma Concentrations” value [7] was “BLQ (BLQ: Below Lower Limit of Quanification (0.5 ng/mL))”. The “Plasma Concentrations” value [8] was “BLQ (BLQ: Below Lower Limit of Quanification (0.5 ng/mL))”, the “Plasma Concentrations” value [9] was “BLQ (BLQ: Below Lower Limit of Quanification (0.5 ng/mL))” and the “Plasma Concentrations” value [10] was “BLQ (BLQ: Below Lower Limit of Quanification (0.5 ng/mL))”. The “Plasma Concentrations” value [11] was “BLQ (BLQ: Below Lower Limit of Quanification (0.5 ng/mL))”, the “Plasma Concentrations” value [12] was “BLQ (BLQ: Below Lower Limit of Quanification (0.5 ng/mL))” and the “Plasma Concentrations” value [13] was “BLQ (BLQ: Below Lower Limit of Quanification (0.5 ng/mL))”. For the same compound, the “Plasma Concentrations” value [14] was “BLQ (BLQ: Below Lower Limit of Quanification (0.5 ng/mL))”, the “Plasma Concentrations” value [15] was “BLQ (BLQ: Below Lower Limit of Quanification (0.5 ng/mL))” and the “Plasma Concentrations” value [16] was “BLQ (BLQ: Below Lower Limit of Quanification (0.5 ng/mL))”.
